Measured values from ChEMBL document CHEMBL4000149, “The effect of glycine replacement with flexible ω-amino acids on the antimicrobial and haemolytic activity of an amphipathic cyclic heptapeptide” (Eur J Med Chem, 2015).
Converted amounts (≈) assume the structure as drawn. Numbered stars: 1 amine (or outer) side, 2 acyl side, 3 side chain; on linkers, the order of the positions; unused ones are H or OH. Square brackets hold non-standard residues; d marks the D form. Peptide text beside a SMILES is read from it. ξ: configuration not given here. Bip = N[C@@H](Cc1ccc(-c2ccccc2)cc1)C(=O)O; Dip = N[C@H](C(=O)O)C(c1ccccc1)c1ccccc1; NH(CH2)9CO = O=C(CCCCCCCCCN[*:1])[*:2]; 2Nal = N[C@@H](Cc1ccc2ccccc2c1)C(=O)O; Cha = N[C@@H](CC1CCCCC1)C(=O)O; ξAoc(2) = CCCCCCC(N)C(=O)O; Aoc = NCCCCCCCC(=O)O; Ahx = NCCCCCC(=O)O; GABA = NCCCC(=O)O

What was measured:
Candida albicans = experiment: Antifungal activity against Candida albicans ATCC 200955 by tube dilution method; format: functional
Escherichia coli = experiment: Antimicrobial activity against Escherichia coli ATCC 25922 by tube dilution method; format: functional
Acinetobacter baumannii = experiment: Antimicrobial activity against multidrug-resistant Acinetobacter baumannii ATCC BAA-1605 by tube dilution method; format: functional
[1] = Toxicity in human erythrocytes assessed as hemolysis after 1 hr; format: cell-based, Erythrocyte
[2] = Toxicity in human erythrocytes assessed as hemolysis at 150 uM after 1 hr; format: cell-based, Erythrocyte; conditions: read-out: Activity
Pseudomonas aeruginosa = experiment: Antimicrobial activity against Pseudomonas aeruginosa ATCC 27853 by tube dilution method; format: functional
Enterococcus faecium = experiment: Antimicrobial activity against vancomycin-resistant Enterococcus faecium ATCC 700221 by tube dilution method; format: functional
Staphylococcus aureus = experiment: Antimicrobial activity against methicillin-resistant Staphylococcus aureus ATCC 33591 by tube dilution method; format: functional
Klebsiella pneumoniae = experiment: Antimicrobial activity against multidrug-resistant Klebsiella pneumoniae ATCC 700603 by tube dilution method; format: functional

| Structure (SMILES) | MIC (Candida albicans) | MIC (Escherichia coli) | MIC (Acinetobacter baumannii) | EC50 at 1 hr [1] | hemolysis at 1 h, 150 µM [2] | MIC (Pseudomonas aeruginosa) | MIC (Enterococcus faecium) | MIC (Staphylococcus aureus) | MIC (Klebsiella pneumoniae) |
| --- | --- | --- | --- | --- | --- | --- | --- | --- | --- |
| CC(C)C[C@@H]1NC(=O)[C@H](Cc2ccc3ccccc3c2)NC(=O)[C@H](CCCNC(=N)N)NC(=O)[C@@H]2CCCN2C(=O)CNC(=O)[C@H](Cc2ccc3ccccc3c2)NC(=O)[C@H](CCCNC(=N)N)NC1=O (cyclo([2Nal]GPR[2Nal]LR)) | 64 µM (≈ 62.3 µg/mL) | > 128 µM | > 128 µM | > 150 µM | < 8% | 128 µM (≈ 125 µg/mL) | 16 µM (≈ 15.6 µg/mL) | 64 µM (≈ 62.3 µg/mL) | > 128 µM |
| CC(C)C[C@@H]1NC(=O)[C@H](Cc2ccc3ccccc3c2)NC(=O)[C@H](CCCNC(=N)N)NC(=O)[C@H](CCC(N)=O)NC(=O)CNC(=O)[C@H](Cc2ccc3ccccc3c2)NC(=O)[C@H](CCCNC(=N)N)NC1=O (cyclo([2Nal]GQR[2Nal]LR)) | 128 µM (≈ 129 µg/mL) | > 128 µM | > 128 µM | > 150 µM | < 8% | > 128 µM | 16 µM (≈ 16.1 µg/mL) | 128 µM (≈ 129 µg/mL) | > 128 µM |
| CC(C)C[C@@H]1NC(=O)[C@H](Cc2ccc3ccccc3c2)NC(=O)[C@H](CCCNC(=N)N)NC(=O)[C@H]([C@@H](C)O)NC(=O)CNC(=O)[C@H](Cc2ccc3ccccc3c2)NC(=O)[C@H](CCCNC(=N)N)NC1=O (cyclo([2Nal]GTR[2Nal]LR)) | 128 µM (≈ 125 µg/mL) | > 128 µM | > 128 µM | > 150 µM | < 8% | > 128 µM | 64 µM (≈ 62.6 µg/mL) | 32 µM (≈ 31.3 µg/mL) | > 128 µM |
| CC(C)C[C@@H]1NC(=O)[C@H](Cc2ccc3ccccc3c2)NC(=O)[C@H](CCCNC(=N)N)NC(=O)[C@H](CC2CCCCC2)NC(=O)CNC(=O)[C@H](Cc2ccc3ccccc3c2)NC(=O)[C@H](CCCNC(=N)N)NC1=O (cyclo([2Nal]G[Cha]R[2Nal]LR)) | 32 µM (≈ 33 µg/mL) | 32 µM (≈ 33 µg/mL) | 64 µM (≈ 65.9 µg/mL) | 28 µM | 99% | 128 µM (≈ 132 µg/mL) | 16 µM (≈ 16.5 µg/mL) | 16 µM (≈ 16.5 µg/mL) | 128 µM (≈ 132 µg/mL) |
| CCCCCCC1NC(=O)CNC(=O)[C@H](Cc2ccc3ccccc3c2)NC(=O)[C@H](CCCNC(=N)N)NC(=O)[C@H](CC(C)C)NC(=O)[C@H](Cc2ccc3ccccc3c2)NC(=O)[C@H](CCCNC(=N)N)NC1=O (stereo partly specified) (cyclo([2Nal]G[ξAoc(2)]R[2Nal]LR)) | 64 µM (≈ 65.2 µg/mL) | 32 µM (≈ 32.6 µg/mL) | 128 µM (≈ 130 µg/mL) | 55 µM | 100% | 128 µM (≈ 130 µg/mL) | 32 µM (≈ 32.6 µg/mL) | 32 µM (≈ 32.6 µg/mL) | 64 µM (≈ 65.2 µg/mL) |
| CC(C)C[C@@H]1NC(=O)CNC(=O)[C@H](Cc2ccc(O)cc2)NC(=O)[C@H](CCCNC(=N)N)NC(=O)[C@H](CC(C)C)NC(=O)[C@H](Cc2ccc3ccccc3c2)NC(=O)[C@H](CCCNC(=N)N)NC1=O (cyclo([2Nal]LRYGLR)) | > 128 µM | > 128 µM | > 128 µM | > 150 µM | 19% | > 128 µM | 64 µM (≈ 61.2 µg/mL) | 128 µM (≈ 122 µg/mL) | > 128 µM |
| CC(C)C[C@@H]1NC(=O)CCCCCCCCCNC(=O)[C@H](Cc2ccc3ccccc3c2)NC(=O)[C@H](CCCNC(=N)N)NC(=O)[C@H](CC(C)C)NC(=O)[C@H](Cc2ccc3ccccc3c2)NC(=O)[C@H](CCCNC(=N)N)NC1=O (cyclo([2Nal]LR[2Nal][NH(CH2)9CO]LR)) | 16 µM (≈ 17.6 µg/mL) | 64 µM (≈ 70.6 µg/mL) | 16 µM (≈ 17.6 µg/mL) | 15 µM | 100% | > 64 µM | 4 µM (≈ 4.41 µg/mL) | 4 µM (≈ 4.41 µg/mL) | > 64 µM |
| CC(C)C[C@@H]1NC(=O)CCCCCNC(=O)[C@H](Cc2ccc3ccccc3c2)NC(=O)[C@H](CCCNC(=N)N)NC(=O)[C@H](CC(C)C)NC(=O)[C@H](Cc2ccc3ccccc3c2)NC(=O)[C@H](CCCNC(=N)N)NC1=O (cyclo([2Nal][Ahx]LR[2Nal]LR)) | 16 µM (≈ 16.7 µg/mL) | 32 µM (≈ 33.5 µg/mL) | 64 µM (≈ 67 µg/mL) | 115 µM | 75% | 64 µM (≈ 67 µg/mL) | 4 µM (≈ 4.19 µg/mL) | 8 µM (≈ 8.37 µg/mL) | 128 µM (≈ 134 µg/mL) |
| CC(C)C[C@@H]1NC(=O)CCCCCCCNC(=O)[C@H](Cc2ccc3ccccc3c2)NC(=O)[C@H](CCCNC(=N)N)NC(=O)[C@H](CC(C)C)NC(=O)[C@H](Cc2ccc3ccccc3c2)NC(=O)[C@H](CCCNC(=N)N)NC1=O (cyclo([2Nal][Aoc]LR[2Nal]LR)) | 4 µM (≈ 4.3 µg/mL) | 16 µM (≈ 17.2 µg/mL) | 8 µM (≈ 8.6 µg/mL) | 22 µM | 100% | 32 µM (≈ 34.4 µg/mL) | 2 µM (≈ 2.15 µg/mL) | 2 µM (≈ 2.15 µg/mL) | 16 µM (≈ 17.2 µg/mL) |
| CC[C@H](C)[C@@H]1NC(=O)[C@H](Cc2ccc3ccccc3c2)NC(=O)[C@H](CCCNC(=N)N)NC(=O)[C@H]([C@@H](C)O)NC(=O)CCCCCCCNC(=O)[C@H](Cc2ccc3ccccc3c2)NC(=O)[C@H](CCCNC(=N)N)NC1=O (cyclo([2Nal][Aoc]TR[2Nal]IR)) | 64 µM (≈ 68 µg/mL) | 128 µM (≈ 136 µg/mL) | 128 µM (≈ 136 µg/mL) | > 150 µM | 10% | > 128 µM | 16 µM (≈ 17 µg/mL) | 32 µM (≈ 34 µg/mL) | > 128 µM |
| CC(C)C[C@@H]1NC(=O)CNC(=O)[C@H](Cc2ccc3ccccc3c2)NC(=O)[C@H](CCCNC(=N)N)NC(=O)[C@H](CC2CCCCC2)NC(=O)[C@H](Cc2ccc3ccccc3c2)NC(=O)[C@H](CCCNC(=N)N)NC1=O (cyclo([2Nal][Cha]R[2Nal]GLR)) | 16 µM (≈ 16.5 µg/mL) | 16 µM (≈ 16.5 µg/mL) | 64 µM (≈ 65.9 µg/mL) | 60 µM | 96% | 128 µM (≈ 132 µg/mL) | 16 µM (≈ 16.5 µg/mL) | 8 µM (≈ 8.24 µg/mL) | 64 µM (≈ 65.9 µg/mL) |
| CC(C)C[C@@H]1NC(=O)CCCNC(=O)[C@H](Cc2ccc3ccccc3c2)NC(=O)[C@H](CCCNC(=N)N)NC(=O)[C@H](CC(C)C)NC(=O)[C@H](Cc2ccc3ccccc3c2)NC(=O)[C@H](CCCNC(=N)N)NC1=O (cyclo([2Nal][GABA]LR[2Nal]LR)) | 16 µM (≈ 16.3 µg/mL) | 64 µM (≈ 65.2 µg/mL) | 128 µM (≈ 130 µg/mL) | 230 µM | 22% | 128 µM (≈ 130 µg/mL) | 8 µM (≈ 8.15 µg/mL) | 16 µM (≈ 16.3 µg/mL) | 128 µM (≈ 130 µg/mL) |
| CC(C)C[C@@H]1NC(=O)CNC(=O)[C@H](Cc2ccc(-c3ccccc3)cc2)NC(=O)[C@H](CCCNC(=N)N)NC(=O)[C@H](CC(C)C)NC(=O)[C@H](Cc2ccc(-c3ccccc3)cc2)NC(=O)[C@H](CCCNC(=N)N)NC1=O (cyclo([Bip]GLR[Bip]LR)) | 16 µM (≈ 16.7 µg/mL) | 16 µM (≈ 16.7 µg/mL) | 32 µM (≈ 33.4 µg/mL) | 16 µM | 96% | 64 µM (≈ 66.7 µg/mL) | 8 µM (≈ 8.34 µg/mL) | 8 µM (≈ 8.34 µg/mL) | 32 µM (≈ 33.4 µg/mL) |
| CC(C)C[C@@H]1NC(=O)CNC(=O)[C@H](C(c2ccccc2)c2ccccc2)NC(=O)[C@H](CCCNC(=N)N)NC(=O)[C@H](CC(C)C)NC(=O)[C@H](C(c2ccccc2)c2ccccc2)NC(=O)[C@H](CCCNC(=N)N)NC1=O (cyclo([Dip]GLR[Dip]LR)) | 64 µM (≈ 66.7 µg/mL) | 64 µM (≈ 66.7 µg/mL) | 64 µM (≈ 66.7 µg/mL) | 145 µM | 54% | > 128 µM | 16 µM (≈ 16.7 µg/mL) | 16 µM (≈ 16.7 µg/mL) | 128 µM (≈ 133 µg/mL) |
